Assay results: patent publication US20060121117A1, “Anti-angiogenic compositions and methods of use” (ANGIOTECH PHARMACEUTICALS, INC., priority 1993, published 2006)

Key:
[1] = Vanadyl sulfate release from PCL paste; format: physicochemical
Experimental: Drug release was determined essentially as described above in Example 33, except that a 65 mg pellet of a 10% w/w VOSO4:PCL was suspended in 10 ml of water and the supernatant analyzed for released Vanadyl Sulphate using UV/Vis absorbance spectroscopy of the peak in the 200 to 300 nm range.

[2] = MTX release from PCL paste; format: physicochemical; settings: high MePEG concentrations (20% MePEG in PCL)
Experimental: A known weight of a polymer (typically a 2.5 mg pellet) is added to a 15 ml test tube containing 14 ml of a buffer containing 10 mm Na2HPO4—NaH2PO4, 0.145 m NaCl and 0.4 g/l bovine serum albumin. The tubes are capped and tumbled at 37° C. At specific times all the 14 ml of the liquid buffer are removed and replaced with fresh liquid buffer.
For MTX the collected buffer is applied directly to the HPLC column with no need for extraction in methylene chloride. MTX is analyzed at 302 nm. For Vanadium containing compounds the liquid buffer is analyzed directly using a UV/VIS spectrometer in the 200 to 300 nm range.
Methotrexate (“MTX”; Sigma Chemical Co.) is ground in a pestle and mortar to reduce the particle size to below 5 microns. It is then mixed as a dry powder with polycaprolactone (molecular wt 18000 Birmingham Polymers, Alabama USA). The mixture is heated to 65° C. for 5 minutes and the molten polymer/methotrexate mixture is stirred into a smooth paste for 5 minutes. The molten paste is then taken into a 1 mL syringe, and extruded as desired.

neutrophils [3] = experiment: Neutrophil superoxide anion generation; format: cell-based, human; settings: paclitaxel at 28 μM
Experimental: (§1) Opsonization of crystals or zymosan was done with 50% heparinized plasma at a concentration of 75 mg of CPPD or 12 mg of zymosan per ml of 50% plasma. Crystals or zymosan were incubated with plasma for 30 min. at 37° C. and then washed in excess HBSS.
Superoxide anion concentrations were measured using the superoxide dismutase inhibitable reduction of cytochrome c assay. Briefly, 25 mg of crystals or 0.5 mg of zymosan was placed in a 1.5 ml capped Eppendorf tube and warmed to 37° C. 0.5 ml of cells at 370 C were added together with ferricytochrome c (final concentration 1.2 mg/ml) and the cells were activated by shaking the capped tubes. […] Control tubes were set up under the same conditions with the inclusion of superoxide dismutase at 600 units per ml.

[4] = test system: chick chorioallantoic membrane (CAM); experiment: Chick chorioallantoic membrane (CAM) assay, agent in methylcellulose disks; settings: for Embryos Evaluated positive/total: 48 hours
c-fos mRNA = experiment: c-fos expression in chondrocytes (Northern blot); format: cell-based, bovine; settings: 10^−6 M, 10^−7 M and 10^−8 M for 2 hours, then TNF 30 ng/ml for 1 hour
Experimental: Total RNA from bovine articular chondrocytes was isolated by the acidified guanidine isothiocyanate method and the levels of c-fos mRNA determined by Northern blot analysis. Denatured RNA samples (12 μg) were analyzed by gel electrophoresis in a denaturing 1% agarose gel, transferred to a nylon membrane (Bio-Rad), cross-linked with an ultraviolet cross-linker (Stratagene UV stratalinker 1800), and hybridized with ^32P-labeled rat c-fos DNA. mRNA for tubulin and total RNA were used as controls. To determine tubulin mRNA, the blots described above were subsequently stripped of DNA and re-probed with ^32P-labeled rat P-tubulin cDNA. This experimented was conducted three times and the data collated.

synoviocytes = experiment: 3H-thymidine incorporation into synoviocytes; format: cell-based; settings: 6 or 24 hours incubation
Experimental: At these times, 1×10^−6 cpm of ^3H-thymidine was added to the cell culture and incubated for 2 hours at 37° C. The cells were placed through a cell harvester, washed through a filter, the filters were cut, and the amount of radiation contained in the filter sections determined. Once the amount of thymidine incorporated into the cells was ascertained, it was used to determine the rate of cell proliferation. This experiment was repeated three times and the data collated together.

neutrophils [5] = experiment: Neutrophil chemiluminescence assay; format: cell-based; settings: Homo sapiens, paclitaxel at 28 μM, read-out: inhibition of the peak chemiluminescence response
Experimental: as §1
All chemiluminescence studies were performed at a cell concentration of 5,000,000 cells/ml in HBSS with CPPD (50 mg/ml). In all experiments 0.5 ml of cells was added to 25 mg of CPPD or 0.5 mg of zymosan in 1.5 ml capped Eppendorf tubes. 10 μl of luminol dissolved in 25% DMSO in HBSS was added to a final concentration of 1 μM and the samples were mixed to initiate neutrophil activation by the crystals or zymosan. Chemiluminescence was monitored using an LKB Luminometer (Model 1250.) at 37° C. with shaking immediately prior to measurements to resuspend the crystals or zymosan. Control tubes contained cells, drug and luminol (crystals absent).

normal chondrocytes = experiment: Chondrocyte viability (Trypan blue counting); format: cell-based; settings: up to 10^−5 M, 72 hours
synovial fibroblasts = experiment: Synoviocyte proliferation (Trypan blue counting); settings: 24 hours
collagenase mRNA = experiment: IL-1 induced collagenase expression in chondrocytes (Northern blot); format: cell-based, bovine; settings: 10^−6 M, 2 hours prior to IL-1 (20 ng/ml), further 16 hours
Experimental: The cells were then incubated for a further 16 hours. Total RNA from bovine articular chondrocytes was isolated by the acidified guanidine isothiocyanate method and the collagenase mRNA determined by Northern blot analysis. The RNA samples were prepared as described above using ^32P-labeled rat collagenase cDNA.

[6] = Release from 50:50 ELVAX:poly-l-lactic acid microspheres; format: physicochemical; settings: 18 hours of tumbling at 37° C.
Experimental: Microspheres are then prepared in a dissolution machine (Six-spindle dissolution tester, VanderKanp, Van Kell Industries Inc., U.S.A.) in triplicate at 200 rpm, 42° C., for 3 hours. Microspheres so prepared are washed twice in water and sized on the microscope.

neutrophils [7] = experiment: Neutrophil viability (LDH release); settings: paclitaxel at 46 μM for one hour at 37° C.
Experimental: Neutrophils were prepared from freshly collected human citrated whole blood. Briefly, 400 ml of blood were mixed with 80 ml of 4% dextran T500 (Phamacia LKB, Biotechnology AB Uppsala, Sweden) in HBSS and allowed to settle for 1 h. Plasma was collected continuously and 5 ml applied to 5 ml of Ficoll Paque (Pharmacia) in 15 ml polypropylene tubes (Corning, N.Y.). Following centrifugation at 500×g for 30 min, the neutrophil pellets were washed free of erythrocytes by 20 s of hypotonic shock. Neutrophils were resuspended in HBSS, kept on ice and used for experiments within 3 h. Neutrophil viability and purity was always greater than 90%.
Cells were incubated for 20 minutes at 33° C. then for 10 minutes at 37° C. before addition to crystals or zymosan.
Control tubes containing cells with drug (crystals absent) from degranulation experiments were also assayed for LDH.

neutrophils [8] = experiment: Neutrophil degranulation assay (myeloperoxidase, lysozyme)

Q: Which results are given for `O=S(=O)([O-])[O-].[O]=[V+2]` [VOSO4, Vanadyl Sulfate]?
A: amount of VOSO4 released ([1]; after 2 days, 65 mg pellet of 10% w/w VOSO4:PCL in 10 ml water): 3 mg; amount of VOSO4 released ([1]; by day 6, 65 mg pellet of 10% w/w VOSO4:PCL in 10 ml water): 5 mg; amount of VOSO4 released ([1]; in 6 hours, 65 mg pellet of 10% w/w VOSO4:PCL in 10 ml water): 1 mg

Q: With `CN(Cc1cnc2nc(N)nc(N)c2n1)c1ccc(C(=O)N[C@@H](CCC(=O)O)C(=O)O)cc1` [MTX, Methotrexate] as the compound, how does the “amount of MTX released from the polymer” value [2] read?
A: substantial amounts

Q: For `CC(=O)O[C@H]1C(=O)[C@@]2(C)[C@H]([C@H](OC(=O)c3ccccc3)[C@]3(O)C[C@H](OC(=O)[C@H](O)[C@@H](NC(=O)c4ccccc4)c4ccccc4)C(C)=C1C3(C)C)[C@]1(OC(C)=O)CO[C@@H]1C[C@@H]2O` [Paclitaxel], which “effect on superoxide anion production” value (neutrophils [3]; opsonised zymosan) is on record?
A: less dramatic than the inhibition of CPPD activation but was significant at all times

Q: What about the “effect on superoxide anion production” value (neutrophils [3]; plasma opsonised CPPD crystals) of the same compound?
A: decrease in the amount of superoxide generated at all times

Q: And the “Embryos Evaluated positive/total” value ([4]; 0.25 μg paclitaxel in methylcellulose disk)?
A: 2/11

Q: And the “Embryos Evaluated positive/total” value ([4]; 0.5 μg paclitaxel in methylcellulose disk)?
A: 6/11

Q: What about the “Embryos Evaluated positive/total” value ([4]; 1 μg paclitaxel in methylcellulose disk) of the same compound?
A: 6/15

Q: What about the “Embryos Evaluated positive/total” value ([4]; 5 μg paclitaxel in methylcellulose disk) of the same compound?
A: 20/27

Q: What about the “Embryos Evaluated positive/total” value ([4]; 10 μg paclitaxel in methylcellulose disk) of the same compound?
A: 16/21

Q: And the “Embryos Evaluated positive/total” value ([4]; 30 μg paclitaxel in methylcellulose disk)?
A: 31/31

Q: And the “time for which avascular zones did not revascularize after application” value ([4]; in one study)?
A: at least 7 days

Q: And the “earliest time at which inhibition of angiogenesis occurs after application” value ([4]; observed over the 48 hour duration)?
A: 9 h

Q: And the avascular zone diameter ([4]; paclitaxel in methylcellulose disk, 48 hour exposure)?
A: 6 mm

Q: What about the “avascular gradient scale (maximal avascular zone)” value ([4]; within 48 hours, depending on concentration) of the same compound?
A: 3

Q: What about the “effect on c-fos expression” value (c-fos mRNA) of the same compound?
A: does not alter c-fos expression

Q: And the “lowest concentration inhibiting incorporation of 3H-thymidine” value (synoviocytes)?
A: 10^−8 M

Q: What about the inhibition at 28 µM (neutrophils [5]; plasma opsonised zymosan) of the same compound?
A: 45%

Q: What about the inhibition at 28 µM (neutrophils [5]; plasma opsonized CPPD) of the same compound?
A: 52%

Q: What about the “effect on viability of normal chondrocytes” value (normal chondrocytes) of the same compound?
A: does not affect the viability

Q: What about the “toxicity to synovial fibroblasts in vitro” value (synovial fibroblasts; 10^−6 M and 10^−5 M) of the same compound?
A: toxic

Q: And the “lowest concentration inhibiting proliferation of the synoviocytes” value (synovial fibroblasts)?
A: 10^−7 M

Q: What about the “effect on IL-1 induced collagenase expression” value (collagenase mRNA) of the same compound?
A: completely inhibited

Q: And the “% of the total drug released from the microspheres (fluorescence assay)” value [6]?
A: 6%

Q: And the “% of the total drug released from the microspheres (uv/vis assay)” value [6]?
A: 10.3%

Q: And the LDH release (neutrophils [7])?
A: less than 5 % of total

Q: And the inhibition at 28 µM (neutrophils [8]; Homo sapiens, Neutrophil, […], read-out: inhibition of MPO release)?
A: 50%

Q: And the “effect on lysozyme release” value (neutrophils [8]; paclitaxel at 28 μM, plasma opsonized CPPD)?
A: reduced lysozyme release

Q: And the “effect on myeloperoxidase release” value (neutrophils [8]; plasma opsonized CPPD, paclitaxel 28 μM (FIG. 32A))?
A: significantly inhibited
